Measurements published in ChEMBL document CHEMBL1141731, “Bioactive pyridoacridine alkaloids from the micronesian sponge Oceanapia sp” (J Nat Prod, 1998).
In brackets after ≈: the same amount, converted by molar mass. Activity calls are given as the source filed them. No cut-off for these calls is given here.

Assays:
Spodoptera littoralis = test: Insecticidal activity against Spodoptera littoralis larvae with artificial diet assessed survival after 6 days; assay type: functional; settings: 144 h
Artemia salina = test: Toxicity against Artemia salina at upto 100 ug/mL after 24 hrs; assay type: organism-based; settings: in vivo
HeLa = test: Cytotoxicity against human HeLa cells assessed as incorporation of [3H]thymidine incorporation; assay type: functional, cell-based
MONO-MAC-6 = test: Cytotoxicity against human MONO-MAC-6 cells assessed as incorporation of [3H]thymidine incorporation; assay type: functional, cell-based
[1] = target: T1, Adenosine receptor A1 (Rattus norvegicus) (UniProt P25099); test: Displacement of [3H]CHA from adenosine A1 receptor in rat brain cortical membrane at 100 uM; assay type: cell membranes
T1 sequence (whole entry): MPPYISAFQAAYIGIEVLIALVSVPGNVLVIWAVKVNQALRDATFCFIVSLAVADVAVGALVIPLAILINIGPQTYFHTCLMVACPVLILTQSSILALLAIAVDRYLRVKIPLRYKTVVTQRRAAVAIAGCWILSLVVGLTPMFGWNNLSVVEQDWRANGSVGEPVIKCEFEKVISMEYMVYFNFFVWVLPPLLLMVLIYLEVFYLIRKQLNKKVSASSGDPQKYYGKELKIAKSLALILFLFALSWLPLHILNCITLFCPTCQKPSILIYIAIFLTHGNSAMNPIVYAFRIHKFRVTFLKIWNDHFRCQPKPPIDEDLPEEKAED

[2] = target: Adenosine receptor A2a (Rattus norvegicus) (UniProt P30543); test: Displacement of [3H]CGS21680 from adenosine A2A receptor in rat brain striatal membrane at 100 uM; assay type: cell membranes
Adenosine receptor A2a (Rattus norvegicus), sequence (P30543 whole entry, the tested form may be a part): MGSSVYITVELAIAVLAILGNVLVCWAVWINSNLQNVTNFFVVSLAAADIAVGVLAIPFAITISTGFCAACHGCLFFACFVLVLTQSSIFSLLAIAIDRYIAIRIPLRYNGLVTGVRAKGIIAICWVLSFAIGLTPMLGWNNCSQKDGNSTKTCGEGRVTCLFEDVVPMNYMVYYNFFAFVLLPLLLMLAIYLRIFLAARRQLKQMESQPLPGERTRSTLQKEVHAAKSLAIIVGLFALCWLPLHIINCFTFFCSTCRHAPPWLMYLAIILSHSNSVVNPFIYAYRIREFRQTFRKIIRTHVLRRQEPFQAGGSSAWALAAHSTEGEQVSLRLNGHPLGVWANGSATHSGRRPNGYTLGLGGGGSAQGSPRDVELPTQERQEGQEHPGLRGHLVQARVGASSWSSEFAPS

Bacillus subtilis = test: Antimicrobial activities activity against Bacillus subtilis 168 at 100ug/disk after 24 hrs by agar plate diffusion assay; assay type: functional, organism-based; settings: subsp. subtilis str. 168
Escherichia coli = test: Antimicrobial activities activity against Escherichia coli ATCC 25922 at 100ug/disk after 24 hrs by agar plate diffusion assay; assay type: functional, organism-based
Cladosporium cucumerinum = test: Fungicidal activity against Cladosporium cucumerinum; assay type: functional, organism-based
Rattus norvegicus [3] = species: Rattus norvegicus; test: Displacement of [3H]diazepam from benzodiazepine binding site of GABAA receptor in rat brain cortical membrane at 25 uM; assay type: cell membranes
Rattus norvegicus [4] = species: Rattus norvegicus; test: (§1) Displacement of [3H]diazepam from benzodiazepine binding site of GABAA receptor in rat brain cortical membrane; assay type: cell membranes
[5] = as §1; assay type: cell membranes
[6] = Toxicity against Artemia salina after 24 hrs; assay type: organism-based; settings: in vivo
[7] = target: T1, Adenosine receptor A1 (Rattus norvegicus); test: Displacement of [3H]CHA from adenosine A1 receptor in rat brain cortical membrane at 25 uM; assay type: cell membranes
[8] = target: Adenosine receptor A2a (Rattus norvegicus) (UniProt P30543); test: Displacement of [3H]CGS21680 from adenosine A2A receptor in rat brain striatal membrane at 25 uM; assay type: cell membranes
Adenosine receptor A1 = target: T2, Adenosine receptor A1 (Rattus norvegicus, UniProt P25099); test: Displacement of [3H]CHA from adenosine A1 receptor in rat brain cortical membrane; assay type: cell membranes
T2 sequence (P25099 whole entry): T1 sequence (whole entry)

Adenosine receptor A2a = Adenosine receptor A2a (Rattus norvegicus, UniProt P30543); test: Displacement of [3H]CGS21680 from adenosine A2A receptor in rat brain striatal membrane; assay type: cell membranes
Adenosine receptor A2a, sequence (P30543 whole entry): as the sequence (P30543 whole entry, the tested form may be a part) above

Row | Ki [5] | SMILES | EC50 (Spodoptera littoralis; read-out: ED50 (the source's name)) | Activity (Artemia salina) | IC50 (HeLa) | IC50 (MONO-MAC-6) | Activity [1] | Activity [2] | Activity (Bacillus subtilis) | Activity (Escherichia coli) | Activity (Cladosporium cucumerinum) | Activity (Rattus norvegicus [3]) | Activity (Rattus norvegicus [4]) | LC50 (Spodoptera littoralis) | LC50 at 24 h [6] | Activity [7] | Activity [8] | Ki (Adenosine receptor A1) | Ki (Adenosine receptor A2a)
1 |  | NCCc1c2c3c(ccnc3c3ncsc13)-c1ccccc1N2 | 141 µg/mL (≈ 443 µM) | Non-toxic | 1.2 µg/mL (≈ 3.77 µM) | 2 µg/mL (≈ 6.28 µM) | 36% | 46% | inactive | inactive | inactive | 30% | Active |  |  |  |  |  | 
2 | 376 µM | Cn1c(=O)c2c(ncn2C)n(C)c1=O [CAFFEINE] |  |  |  |  |  |  |  |  |  |  |  |  |  |  |  |  | 
3 |  | CCC(=O)NCCc1c2c3c(ccnc3c3ncsc13)-c1ccccc1N2 [KUANONIAMINE C] |  |  | 5.1 µg/mL (≈ 13.6 µM) | 1.2 µg/mL (≈ 3.2 µM) |  |  | inactive | inactive | inactive | 39% | Active | 156 µg/mL (≈ 417 µM) | 37 µg/mL (≈ 98.8 µM) | 34% | 43% |  | 
4 |  | CC(=O)NCCc1c2c3c(ccnc3c3ncsc13)-c1ccccc1N2 [KUANONIAMINE D] |  |  | 1.4 µg/mL (≈ 3.88 µM) | 0.8 µg/mL (≈ 2.22 µM) |  |  | inactive | inactive | inactive | 32% | Active | 59 µg/mL (≈ 164 µM) | 19 µg/mL (≈ 52.7 µM) | 68% | 56% | 2.94 µM | 13.7 µM
